From the supplement of paper PMC11208160

Assay: recombinant barcode read abundance after kanamycin selection (control-corrected) (log10(CPM+1)); higher = more efficient recombination; sequences stand for … in AGTGCAGAGAAAATCGGCCAGTTTTCTCTGCCTGCAGTCCGCATGCCGT…AGATTTATGCAGCGGACTGCCTTTCTCCCAAAGTGATAAACCGGACAGTATCATGGACCGGTTTTCCCGGTAATCCGTATTTGCAAGGTTGGTTTCACT; site = the 11-nt target
How it was run: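 A promoter, a target, a barcode and the first 104 bridge RNA bases under J23119 made up each oligo. Oligos were Gibson-cloned into a vector bearing the other 73 bp and a T7-inducible recombinase, then co-electroporated into E. coli with a donor plasmid and plated in duplicate on chloramphenicol/ampicillin LB agar (control) or chloramphenicol/ampicillin/kanamycin with 0.1 mM IPTG. Recombination efficiency is the averaged, control-corrected counts per million of recombinant-junction barcodes. Reported values are log10(CPM+1).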
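Note: IS621 recombinase and bridge RNA in Escherichia coli cells.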

Sequence | recombinant barcode read abundance (log10)
CTAGACCCTTGGGTTCTAACCTGTTGCGG (site ACGCGTTCTAT) | 0.25
CTAGACCCTTGGGTTCTAACCTGTTGCGG (site CTAGACCCTCC) | 2.56
CTAGACGCTTGGGTTCTAACCTGTTGCCT (site CAAGACGCTAG) | 1.41
CTAGACGCTTGGGTTCTAACCTGTTGCCT (site CTAGACGCTAG) | 0.677
CTAGACTCTTGGGTTCTAACCTGTTGCAT (site CTAGACTCTAT) | 2.88
CTAGACTCTTGGGTTCTAACCTGTTGCAT (site CTAGACTCTCT) | 1.75
CTAGACTCTTGGGTTCTAACCTGTTGCAT (site CTAGACTCTGT) | 0.161
CTAGACTCTTGGGTTCTAACCTGTTGCAT (site CTAGACTCTTT) | 0.365
CTAGCGACTTGGGTTCTAACCTGTTGCGG (site CTAACGACTCC) | 0.637
CTAGCGACTTGGGTTCTAACCTGTTGCGG (site CTAGCGACTCC) | 1.85
CTAGCGTCTTGGGTTCTAACCTGTTGCTT (site CTAGAGTCTAA) | 0.115
CTAGCGTCTTGGGTTCTAACCTGTTGCTT (site CTAGCGTCTAA) | 0.776
CTAGCTCCTTGGGTTCTAACCTGTTGCAG (site CTAGCGGCTCT) | 0.0535
CTAGCTCCTTGGGTTCTAACCTGTTGCAG (site CTAGCTCCTCT) | 1.54
CTAGGACCTTGGGTTCTAACCTGTTGCCA (site CTAGGACCTTG) | 1.27
CTAGGACCTTGGGTTCTAACCTGTTGCCA (site CTAGGAGCTAG) | 0.233

Sequence | recombinant barcode read abundance (log10)
CTAGGAGCTTGGGTTCTAACCTGTTGCTT (site CTAGGAGCTAA) | 0.924
CTAGGAGCTTGGGTTCTAACCTGTTGCTT (site CTAGGAGCTCA) | 0.211
CTAGGAGCTTGGGTTCTAACCTGTTGCTT (site CTAGGAGCTGA) | 0.0912
CTAGGAGCTTGGGTTCTAACCTGTTGCTT (site CTAGGAGCTTA) | 0.0974
CTAGGATCTTGGGTTCTAACCTGTTGCAT (site CTAGGATCTAT) | 2.45
CTAGGATCTTGGGTTCTAACCTGTTGCAT (site CTAGGATCTTG) | 0.301
CTAGGCTCTTGGGTTCTAACCTGTTGCGG (site CTACGCTCTTC) | 0.095
CTAGGCTCTTGGGTTCTAACCTGTTGCGG (site CTAGGCTCTCC) | 2.32
CTAGGTACTTGGGTTCTAACCTGTTGCTT (site ATAGGTACTAA) | 0.0337
CTAGGTACTTGGGTTCTAACCTGTTGCTT (site CTAGGTACTAA) | 0.0303
CTAGTAACTTGGGTTCTAACCTGTTGCCA (site ACGCGTGCTCC) | 0.0245
CTAGTAACTTGGGTTCTAACCTGTTGCCA (site CTAGTAACTTG) | 0.351
CTAGTTACTTGGGTTCTAACCTGTTGCCT (site CTAATTACTAG) | 0.0479
CTAGTTACTTGGGTTCTAACCTGTTGCCT (site CTACTTACTAG) | 0.363
CTAGTTACTTGGGTTCTAACCTGTTGCCT (site CTAGTTACTAG) | 1.11
CTAGTTACTTGGGTTCTAACCTGTTGCCT (site CTATTTACTAG) | 0.177
